Assay results published in patent US9701664B2, “Fused 1,4-dihydrodioxin derivatives as inhibitors of heat shock transcription factor 1” (Cancer Research Technology Limited, priority 2013, dated 2017).

How the values were obtained:
[1] = tested on: U2OS cells; test: Titre Blue cell viability assay, U2OS cells; type: cell-based; conditions: Homo sapiens, U2OS
[2] = tested on: HSP72 in U2OS cells; test: Cell-based ELISA (Cellisa) assay, U2OS cells: inhibition of 17-AAG-induced HSP72; conditions: U2OS cells (Examples 1-168)
Description: U2OS cells (5-8×10^4 cells/mL) or SK-OV-3 cells (5-8×10^4 cells/mL) were seeded into 96-well plates and incubated at 37° C. for 48 h. Compounds were then added at a range of concentrations and incubated for 1 h before addition of 17-AAG (250 nM). Cells were then incubated for 18 h. The medium was removed washed 2× with PBS and cells were then fixed with fixing solution (4% paraformaldehyde, 0.3% TritonX-100 in PBS) for 30 min at 4° C. The plates were then washed 2× with PBS before blocking with 5% milk for 30 min at 37° C. After washing the plates 4× with 0.1% Tween-20/deionised water, HSP72 antibody (SPA-810, Enzo Life) was added for 1.5 h at 37° C. Following 4× washes, the plates were incubated with europium-labelled anti-mouse antibody (0.6 ug/ml) in Delfia assay buffer (Perkin Elmer) for 1 h at 37° C. After washing the plates, Delfia enhancement solution was added, shaken for 10 min before reading in the Envision plate reader (Perkin-Elmer) with excitation at 340 nm and emission at 615 nm. The plates were washed again before protein determination using the bicinchoninic acid assay (BCA assay, Pierce Biotechnology). The europium counts were normalised for the amount of protein in each well. The 50% inhibitory concentration value of the compound was then calculated.

Compound | IC50 ([2]; Homo sapiens) [nM] | further results
Cc1ccc(NC(=O)c2ccc3c(c2)OCCO3)cc1NC(=O)c1ccc(OCc2ccccn2)nc1 [Example 25, N-(5-(2,3-dihydrobenzo[b][1,4]dioxine-6-carboxamido)-2-methylphenyl)-6-(pyridin-2-ylmethoxy)nicotinamide] | 1610 | IC50 [1]: 1130 nM
Cc1ccc2cc(C(=O)Nc3cc(NC(=O)c4ccc5c(c4)OCCO5)ccc3C)ccc2c1 [Example 108, N-(4-methyl-3-(6-methyl-2-naphthamido)phenyl)-2,3-dihydrobenzo[b][1,4]dioxine-6-carboxamide] | 483 | –
Cc1ccc(NC(=O)c2ccc3c(c2)OCCO3)cc1NC(=O)c1ccc2c(c1)CCNC2 [Example 88, N-(5-(2,3-dihydrobenzo[b][1,4]dioxine-6-carboxamido)-2-methylphenyl)-1,2,3,4-tetrahydroisoquinoline-6-carboxamide] | 770 | –
Cc1cc(NCCN2CCOCC2)c2cc(C(=O)Nc3cc(NC(=O)c4ccc5c(c4)OCCO5)ccc3C)ccc2n1 [Example 118, N-(5-(2,3-dihydrobenzo[b][1,4]dioxine-6-carboxamido)-2-methylphenyl)-2-methyl-4-(2-morpholinoethylamino)quinoline-6-carboxamide] | 618 | –
Cc1ccc(NC(=O)c2ccc3c(c2)OCCO3)cc1NC(=O)c1ccc2ncccc2c1 [Example 1, N-(5-(2,3-dihydrobenzo[b][1,4]dioxine-6-carboxamido)-2-methylphenyl)quinoline-6-carboxamide] | 5 | –
Cc1ccc(NC(=O)c2ccc3c(c2)OCCO3)cc1NC(=O)c1ccc2c(c1)CCC(C)N2C (stereo not shown) [Example 159, N-(5-(2,3-dihydrobenzo[b][1,4]dioxine-6-carboxamido)-2-methylphenyl)-1,2-dimethyl-1,2,3,4-tetrahydroquinoline-6-carboxamide] | 345 | –
Cc1ccc(NC(=O)c2ccc3c(c2)OCCO3)cc1NC(=O)c1ccc(Nc2cccc(OC3CCN(C)CC3)c2)nc1 [Example 121, N-(5-(2,3-dihydrobenzo[b][1,4]dioxine-6-carboxamido)-2-methylphenyl)-6-(3-(1-methylpiperidin-4-yloxy)phenylamino)nicotinamide] | – | IC50 [1]: 338 nM
Cc1ccc(NC(=O)c2ccc3c(c2)OCCO3)cc1NC(=O)c1ccc2nc(C(C)O)ccc2c1 (stereo not shown) [Example 142, N-(5-(2,3-dihydrobenzo[b][1,4]dioxine-6-carboxamido)-2-methylphenyl)-2-(1-hydroxyethyl)quinoline-6-carboxamide] | 51 | –
Cc1ccc(NC(=O)c2ccc3c(c2)OCCO3)cc1NC(=O)c1ccc(OCc2cncs2)cc1 [Example 20, N-(4-methyl-3-(4-(thiazol-5-ylmethoxy)benzamido)phenyl)-2,3-dihydrobenzo[b][1,4]dioxine-6-carboxamide] | 1480 | –
Cc1ccc(NC(=O)c2ccc3c(c2)OCCO3)cc1NC(=O)c1ccc2nc(N3CCN(C)CC3)ccc2c1 [Example 74, N-(5-(2,3-dihydrobenzo[b][1,4]dioxine-6-carboxamido)-2-methylphenyl)-2-(4-methylpiperazin-1-yl)quinoline-6-carboxamide] | 232 | –
Cc1ccc(NC(=O)c2ccc3c(c2)OCCO3)cc1NC(=O)c1ccc2c(c1)CCC(CN(C)C(=O)OC(C)(C)C)N2 (stereo not shown) [Example 85, tert-butyl ((6-((5-(2,3-dihydrobenzo[b][1,4]dioxine-6-carboxamido)-2-methylphenyl)carbamoyl)-1,2,3,4-tetrahydroquinolin-2-yl)methyl)(methyl)carbamate] | 1140 | –
CCNc1ccc(C(=O)Nc2cc(NC(=O)c3ccc4c(c3)OCCO4)ccc2C)cn1 [Example 102, N-(5-(2,3-dihydrobenzo[b][1,4]dioxine-6-carboxamido)-2-methylphenyl)-6-(ethylamino)nicotinamide] | 835 | –
Cc1ccc(NC(=O)c2ccc3c(c2)OCCO3)cc1NC(=O)c1ccc(-c2ccccc2)nc1 [Example 37, N-(5-(2,3-dihydrobenzo[b][1,4]dioxine-6-carboxamido)-2-methylphenyl)-6-phenylnicotinamide] | 1960 | –
Cc1ccc(NC(=O)c2ccc3c(c2)OCCO3)cc1NC(=O)c1ccc2c(c1)CCN2C(=O)OC(C)(C)C [Example 30, tert-butyl 5-((5-(2,3-dihydrobenzo[b][1,4]dioxine-6-carboxamido)-2-methylphenyl)carbamoyl)indoline-1-carboxylate] | 507 | –
Cc1ccc(NC(=O)c2ccc3c(c2)OCCO3)cc1NC(=O)c1ccc(N)nc1 [Example 104, 6-amino-N-(5-(2,3-dihydrobenzo[b][1,4]dioxine-6-carboxamido)-2-methylphenyl)nicotinamide] | 482 | –
Cc1ccc(NC(=O)c2ccc3c(c2)OCCO3)cc1NC(=O)c1ccc2ccncc2c1 [Example 2, N-(5-(2,3-dihydrobenzo[b][1,4]dioxine-6-carboxamido)-2-methylphenyl)isoquinoline-7-carboxamide] | 7 | –
N-(5-(2,3-dihydrobenzo[b][1,4]dioxine-6-carboxamido)-2-methyl)phenyl)-2-methyl-4-(2-(pyrrolidin-1-yl)ethoxy)quinoline-6-carboxamide [Example 120] | – | IC50 [2]: 2730 nM
Cc1ccc(NC(=O)c2ccc3c(c2)OCCO3)cc1NC(=O)c1ccc(Nc2cccc(I)c2)nc1 [Example 38, N-(5-(2,3-dihydrobenzo[b][1,4]dioxine-6-carboxamido)-2-methylphenyl)-6-((3-iodophenyl)amino)nicotinamide] | 41 | –
Cc1ccc(NC(=O)c2ccc3c(c2)OCCO3)cc1NC(=O)c1cc(N(C)CCN(C)C)c2ncccc2c1 [Example 162, N-(5-(2,3-dihydrobenzo[b][1,4]dioxine-6-carboxamido)-2-methylphenyl)-8-((2-(dimethylamino)ethyl)(methyl)amino)quinoline-6-carboxamide] | 984 | –
Cc1ccc(NC(=O)c2ccc3c(c2)OCCO3)cc1NC(=O)c1ccc2nc(N3CCOCC3)ccc2c1 [Example 32, N-(5-(2,3-dihydrobenzo[b][1,4]dioxine-6-carboxamido)-2-methylphenyl)-2-morpholinoquinoline-6-carboxamide] | 665 | –
Cc1ccc(NC(=O)c2ccc3c(c2)OCCO3)cc1NC(=O)c1ccc(Nc2ccccc2)nc1 [Example 94, N-(5-(2,3-dihydrobenzo[b][1,4]dioxine-6-carboxamido)-2-methylphenyl)-6-(phenylamino)nicotinamide] | 73 | –
CCC(=O)NCCOc1ccc2cc(C(=O)Nc3cc(NC(=O)c4ccc5c(c4)OCCO5)ccc3C)ccc2n1 [Example 81, N-(5-(2,3-dihydrobenzo[b][1,4]dioxine-6-carboxamido)-2-methylphenyl)-2-(2-propionamidoethoxy)quinoline-6-carboxamide] | 100 | –
COCCOc1cc(OC)c2cc(C(=O)Nc3cc(NC(=O)c4ccc5c(c4)OCCO5)ccc3C)ccc2n1 [Example 22, N-(5-(2,3-dihydrobenzo[b][1,4]dioxine-6-carboxamido)-2-methylphenyl)-4-methoxy-2-(2-methoxyethoxy)quinoline-6-carboxamide] | 160 | –
Cc1ccc(NC(=O)c2ccc3c(c2)OCCO3)cc1NC(=O)c1ccc2nc(C(F)(F)F)[nH]c2c1 [Example 90, N-(5-(2,3-dihydrobenzo[b][1,4]dioxine-6-carboxamido)-2-methylphenyl)-2-(trifluoromethyl)-1H-benzo[d]imidazole-6-carboxamide] | – | IC50 [1]: 1360 nM
Cc1ccc(NC(=O)c2ccc3c(c2)OCCO3)cc1NC(=O)c1ccc2nc(Cl)ccc2c1 [Example 12, 2-chloro-N-(5-(2,3-dihydrobenzo[b][1,4]dioxine-6-carboxamido)-2-methylphenyl)quinoline-6-carboxamide] | 51 | –
Cc1cc(NCCN2CCCC2)c2cc(C(=O)Nc3cc(NC(=O)c4ccc5c(c4)OCCO5)ccc3C)ccc2n1 [Example 117, N-(5-(2,3-dihydrobenzo[b][1,4]dioxine-6-carboxamido)-2-methylphenyl)-2-methyl-4-(2-(pyrrolidin-1-yl)ethylamino)quinoline-6-carboxamide] | 635 | –
Cc1ccc(NC(=O)c2ccc3c(c2)OCCO3)cc1NC(=O)c1ccc2c(c1)CC[C@@H](C)N2 [Example 155, (R)—N-(5-(2,3-dihydrobenzo[b][1,4]dioxine-6-carboxamido)-2-methylphenyl)-2-methyl-1,2,3,4-tetrahydroquinoline-6-carboxamide] | 227 | –
Cc1ccc2cc(C(=O)Nc3cc(NC(=O)c4cc5c(cc4F)OCCO5)ccc3C)ccc2n1 [Example 130, N-(5-(7-fluoro-2,3-dihydrobenzo[b][1,4]dioxine-6-carboxamido)-2-methylphenyl)-2-methylquinoline-6-carboxamide] | 156 | –
Cc1cc(NCCCN(C)C)c2cc(C(=O)Nc3cc(NC(=O)c4ccc5c(c4)OCCO5)ccc3C)ccc2n1 [Example 111, N-(5-(2,3-dihydrobenzo[b][1,4]dioxine-6-carboxamido)-2-methylphenyl)-4-(3-(dimethylamino)propylamino)-2-methylquinoline-6-carboxamide] | 1840 | –
CNCC1CCc2cc(C(=O)Nc3cc(NC(=O)c4ccc5c(c4)OCCO5)ccc3C)ccc2N1 (stereo not shown) [Example 86, N-(5-(2,3-dihydrobenzo[b][1,4]dioxine-6-carboxamido)-2-methylphenyl)-2-((methylamino)methyl)-1,2,3,4-tetrahydroquinoline-6-carboxamide] | 195 | –
